What all share (format): cell-based
For assay [1], the system named is H. influenzae TW5. Nature of the assay: Dose response deferred antagonism assay, producer K12. Here is the method: (§1) 1-2 producer strain colonies were transferred from a stock plate into 900 μL of suspension solution using a fresh cotton swab. Following this, suspensions were vortexed, and a sample was inoculated onto solid culture media using a fresh cotton swab. The inoculation was a streak that runs diametrically across the agar plate in a 1.5 cm wide strip. The plate was then incubated. Following incubation all visible colonies were removed by swabbing them from the agar surface. The plates were then treated with chloroform by dispensing 2 ml of chloroform onto 4 cm×4 cm piece of cloth and sealing the inverted agar plate on top for 30 minutes. The plates were then air dried for 30 minutes following chloroforming. 1-2 indicator strain colonies were then transferred from a stock plate into complementary suspension solution. The suspensions were then vortexed, and a sample was inoculated onto the same agar surface. These samples were streaked in a perpendicular direction to the initial producer streak.
(§2) Each indicator streak was prepared with fresh a suspension containing cells from a corresponding stock plate containing the indicator strain of interest. Indicator strains suspension samples were transferred using a fresh cotton swab. Results were measured by qualitatively reviewing the subsequent (if any) sizes of the zones of inhibition (ZOI) of indicator strain colony growth. A positive result is when there is a distinctive reduction or complete inhibition of indicator colony growth on the culture medium.
(§3) CABCa agar plates containing various concentrations of saccharide were prepared according to the methods described in Method 1. Producer strains were transferred from stock agar plates into 900 μL THB using a fresh cotton swab. A plastic spread plater was cut to approximately 1.2 cm width and then dipped into ethanol and left to air dry to ensure sterility. A 100 μL sample of the producer strain suspension was then dispensed onto the agar surface in a straight line running diametrically across the agar surface in (approximately) 20 μL spots. The spots were spaced approximately 1.5 cm apart from each other. The plastic spreader was then used to evenly distribute the spots across the agar surface in a 1.5 cm wide strip. This step was taken to ensure an even producer streak was inoculated onto the agar surface and provided an approximate measure of the initial inoculum concentration. Separate plastic spreaders were used for samples containing different producer strains. The samples were left to soak into the agar surface until there was no visible liquid remaining on the agar surface (approximately 20 minutes). Following producer streak preparations, the deferred antagonism assay protocol was followed as per Method 2. Results were recorded by measuring the size of the zone of inhibition (ZOI) in mm.
(§4) The results presented in FIG. 1 and FIG. 2 illustrate the change in ear, nose, and throat (ENT) microorganism indicator strain zone of inhibition sizes. When K12 was cultured in the presence of various concentrations of galactose the ZOI sizes for several of the ENTR indicator strains increased markedly from the control condition (FIG. 1). M. catarrhalis TW1 and TW2 display similar changes in the ZOI sizes across the various concentrations of galactose. The change in TW1 ZOI size peaks at 1.5% galactose(w/v) (12 mm) then decreases at 2.0% galactose (w/v), whereas the change of TW2 ZOI size peaks at 2.0% galactose (w/v) (11 mm). The change in L. lactis T-21 ZOI sizes trend upwards relative to the concentration of galactose present in the culture medium.

Assay [2] relates to H. influenzae TW5. Nature of the assay: Dose response deferred antagonism assay, producer M18. The note with it: 1.5% (w/v) raffinose.
In assay [3] the test system is halitosis-causing gram-negative bacteria F. nucleatum, P. gingivalis and P. intermedia. Nature of the assay: Deferred antagonism assay (anaerobic), producer M18. The note with it: 2.5% w/w raffinose; or combination with 0.5% w/w galactose. On the procedure: Method: CABCa agar plates were prepared with or without 2.5% w/w raffinose, 0.5% w/w galactose or a combination of both saccharides by the addition of 0.5% (w/v) calcium carbonate to solid CAB agar in bottles and then melted by autoclaving at 110° C. for 10 mins. Once cooled, filter sterilised solutions of the saccharides or distilled water were added and mixed and then 20 ml pipetted into petri dishes.
A deferred antagonism assay was conducted using K12 or M18 raw ingredient suspended in THB. This was spread as a 1.2 cm streak containing approximately 1-2×10^6 cfu down the middle of a CABCa control or CABCa galactose supplemented test plate. After 18 hrs growth at 37° C., 5% CO2 in air, bacterial growth was removed, and the pH of the agar in the initial streak was measured and adjusted to a pH of 6.5-7.5 using 0.5M sodium carbonate pH11 before sterilizing the agar surface using chloroform vapor. Bacterial test strains were suspended in THB and swabbed across the plates perpendicular to the initial streak and then the plates were incubated at 37° C. in an anaerobic jar containing an anaeroGen sachet for 4 days. Zones of inhibition for each test strain were then measured (mm).

The subject of assay [4] is S. sobrinus OMZ176. Nature of the assay: Deferred antagonism assay, producer S. salivarius K12. The note with it: Streptococcus sobrinus, read-out: Size of zone inhibition normalised to control, S. sobrinus OMZ176. Here is the method:
as §1, §2
(§5) Method: CABCa agar plates were prepared with or without 0.5, 1.25, 1.7, 2.5, 3.3 and 5% galactose by the addition of 0.5% (w/v) calcium carbonate to solid CAB agar in bottles and then melted by autoclaving at 110° C. for 10 mins. Once cooled, filter sterilised solutions of the saccharides or distilled water were added and mixed and then 20 ml pipetted into petri dishes.
(§6) A deferred antagonism assay was conducted using K12 or M18 raw ingredient suspended in Todd Hewitt broth (THB). This was spread as a 1.2 cm streak containing approximately 1-2×10^6 cfu down the middle of a CABCa control or CABCa galactose supplemented test plate. After 18 hrs growth at 37° C. with 5% CO2, bacterial growth was removed, and the pH of the agar in the initial streak was measured and adjusted to a pH of 6.5-7.5 using 0.5M sodium carbonate pH11 before sterilizing the agar surface using chloroform vapor. Bacterial test strains were suspended in i-THB before being swabbed across the plates perpendicular to the initial streak. Plates were incubated for a further 18 hrs incubation at 37° C. with 5% CO2 before measuring (mm) any zones of inhibition for each test strain, […]

Assay [5] deals with S. sobrinus OMZ176. In words: Deferred antagonism assay, producer S. salivarius M18. Conditions: Streptococcus sobrinus, read-out: Size of zone inhibition normalised to control, S. sobrinus OMZ176. On the procedure: as §1, §2, §5, §6
Assay [6] has as its system S. pyogenes M57. In words: Dose response deferred antagonism assay, producer K12. The note with it: 0.1%, 1.0%, and 1.5% (w/v) galactose. On the procedure: as §1, §2, §3, §4
Assay [7] has as its system S. pyogenes M76. Nature of the assay: Dose response deferred antagonism assay, producer M18. Conditions: 1.5% (w/v) galactose, largest.

`OC[C@H]1O[C@H](OC[C@H]2O[C@H](O[C@]3(CO)O[C@H](CO)[C@@H](O)[C@@H]3O)[C@H](O)[C@@H](O)[C@@H]2O)[C@H](O)[C@@H](O)[C@H]1O` [Raffinose, D-(+) Raffinose pentahydrate]: the “change in ZOI size for H. influenzae TW5” value in assay [1] (1.5% raffinose (w/v), peak) turned out to be 12 mm. Besides, the “TW5 ZOI size change” value in assay [1] (2% raffinose (w/v)) is 0 mm. The “H. influenzae TW5 ZOI size” value in assay [2] is listed as 26 mm. For the same compound, the “antimicrobial activity of M18 against halitosis-causing bacteria” value in assay [3] is listed as “inhibit some strains”.

The zone of inhibition is the size of the clear area around the sample on an inoculated plate. On to `O=C[C@H](O)[C@@H](O)[C@@H](O)[C@H](O)CO` [Galactose, D-galactose], for which the zone of inhibition at 1.25 % strength in assay [4] (Galactose 1.25% w/w) and in assay [5] (Galactose 1.25% w/w) was 0 mm in each case. In addition, the zone of inhibition at 1.7 % strength in assay [4] (Galactose 1.7% w/w) and in assay [5] (Galactose 1.7% w/w) was 0 mm throughout. For the same compound, the zone of inhibition at 2.5 % strength in assay [4] (Galactose 2.5% w/w) and in assay [5] (Galactose 2.5% w/w) was 0 mm throughout. For the same compound, the zone of inhibition at 3.3 % strength in assay [4] (Galactose 3.3% w/w) and in assay [5] (Galactose 3.3% w/w) was 0 mm each time. Further, the zone of inhibition at 5 % strength in assay [4] (Galactose 5% w/w) and in assay [5] (Galactose 5% w/w) was 0 mm in each case. The zone of inhibition at 0.5 % strength in assay [5] (Galactose 0.5% w/w) is 0 mm. In assay [6], the “S. pyogenes M57 ZOI sizes vs control condition” value is given as “increase”. Besides, in assay [7], the “S. pyogenes M76 zone of inhibition” value was determined as 14 mm.

The values are drawn from patent US20240390434A1, “PROBIOTIC ENHANCERS AND USES THEREOF” (Blis Technologies Limited, priority 2021, published 2024).
